Values joined by “and” are separate entries in the source; they are usually repeats but may differ in a detail not shown here. Identical values can stand only once. Inconclusive results and toxic doses are left out. Rule for the calls: active = survival T/C of 150% or more; inactive = T/C below 125% in these data. Peptide text beside a SMILES is read from it.
Test system: P388 leukemia ip, CD2F1 mice, survival T/C
Assay: NCI In Vivo Anticancer Drug Screen. Data for tumor model P388 Leukemia (intraperitoneal) in CD2F1 (CDF1) mice
Settings: endpoint: median survival time, higher = longer survival
Summary of the method: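 Mice carrying the transplanted tumor received test compound or vehicle. Survival was recorded in each group, and the value is the treated-group measurement divided by that of the vehicle-treated control group.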

[1] = dose: 50.0 mg/kg/injection, schedule: Q01DX009 (ip), vehicle: saline
[2] = dose: 100.0 mg/kg/injection, schedule: Q01DX009 (ip), vehicle: saline
[3] = dose: 200.0 mg/kg/injection, schedule: Q01DX009 (ip), vehicle: saline
[4] = dose: 60.0 mg/kg/injection, schedule: Q01DX005 (ip), vehicle: saline with Tween-80
[5] = dose: 120.0 mg/kg/injection, schedule: Q01DX005 (ip), vehicle: saline with Tween-80
[6] = dose: 240.0 mg/kg/injection, schedule: Q01DX005 (ip), vehicle: saline with Tween-80
[7] = dose: 50.0 mg/kg/injection, schedule: Q01DX009 (ip), vehicle: Klucel (hydroxypropylcellulose) (HPC)
[8] = dose: 100.0 mg/kg/injection, schedule: Q01DX009 (ip), vehicle: Klucel (hydroxypropylcellulose) (HPC)
[9] = dose: 200.0 mg/kg/injection, schedule: Q01DX009 (ip), vehicle: Klucel (hydroxypropylcellulose) (HPC)
[10] = dose: 50.0 mg/kg/injection, schedule: Q01DX009 (ip), vehicle: saline with Tween-80
[11] = dose: 100.0 mg/kg/injection, schedule: Q01DX009 (ip), vehicle: saline with Tween-80
[12] = dose: 200.0 mg/kg/injection, schedule: Q01DX009 (ip), vehicle: saline with Tween-80
[13] = dose: 25.0 mg/kg/injection, schedule: Q04DX003 (ip), vehicle: saline with Tween-80
[14] = dose: 50.0 mg/kg/injection, schedule: Q04DX003 (ip), vehicle: saline with Tween-80
[15] = dose: 100.0 mg/kg/injection, schedule: Q04DX003 (ip), vehicle: saline with Tween-80
[16] = dose: 50.0 mg/kg/injection, schedule: Q01DX005 (ip), vehicle: saline with Tween-80
[17] = dose: 100.0 mg/kg/injection, schedule: Q01DX005 (ip), vehicle: saline with Tween-80
[18] = dose: 200.0 mg/kg/injection, schedule: Q01DX005 (ip), vehicle: saline with Tween-80

Measured: T/C

CC(C)CC(N)C(=O)NC(CCCN=C(N)N)C(=O)NC(CCCN=C(N)N)C(=O)NC(C)C(=O)NC(CO)C(=O)NC(CC(C)C)C(=O)NCC(=O)O (stereo not given) (H-LRRASLG-OH; configuration not given here)
inactive: dose: 2.25 mg/kg/injection, schedule: Q01DX009 (ip), vehicle: Klucel (hydroxypropylcellulose) (HPC) 103 % of control | dose: 4.5 mg/kg/injection, schedule: Q01DX009 (ip), vehicle: Klucel (hydroxypropylcellulose) (HPC) 100 % of control | dose: 9.0 mg/kg/injection, schedule: Q01DX009 (ip), vehicle: Klucel (hydroxypropylcellulose) (HPC) 100 % of control | dose: 18.0 mg/kg/injection, schedule: Q01DX009 (ip), vehicle: Klucel (hydroxypropylcellulose) (HPC) 106 % of control | dose: 36.0 mg/kg/injection, schedule: Q01DX009 (ip), vehicle: Klucel (hydroxypropylcellulose) (HPC) 106 % of control

O=c1ccocc1CN1CCCCC1
inactive: [1] 100 % of control | [2] 99 % of control | [3] 99 % of control

Cc1ccc(-c2n[nH]c(=O)c(C#N)c2-c2ccc(C)cc2)cc1
inactive: dose: 100.0 mg/kg/injection, schedule: Q04DX002 (ip), vehicle: saline with Tween-80 88 % of control | dose: 400.0 mg/kg/injection, schedule: Q04DX002 (ip), vehicle: saline with Tween-80 88 % of control

CCOc1c(N=Nc2ccc(Cl)cc2Cl)c(C)nn1C(=S)S
inactive: dose: 60.0 mg/kg/injection, schedule: Q01DX005 (ip), vehicle: Klucel + Tween-80 90 % of control | dose: 120.0 mg/kg/injection, schedule: Q01DX005 (ip), vehicle: Klucel + Tween-80 103 % of control | dose: 240.0 mg/kg/injection, schedule: Q01DX005 (ip), vehicle: Klucel + Tween-80 100 % of control

Cn1c(=O)c2[nH]c(-n3ccc(=N)cc3)nc2n(C)c1=O
inactive: dose: 100.0 mg/kg/injection, schedule: Q04DX003 (ip), vehicle: saline 103 % of control | dose: 200.0 mg/kg/injection, schedule: Q04DX003 (ip), vehicle: saline 99 % of control | dose: 400.0 mg/kg/injection, schedule: Q04DX003 (ip), vehicle: saline 99 % of control

CC1=NN(c2ccccc2)C(=O)C1N=Nc1cc(Cl)cc(S(=O)(=O)O)c1O (stereo not given)
inactive: [1] 96 % of control | [2] 97 % of control

C=CC(=O)NC(C(=O)O)C(C)C (stereo not given)
inactive: dose: 50.0 mg/kg/injection, schedule: Q01DX005 (ip), vehicle: saline 97 % of control | dose: 100.0 mg/kg/injection, schedule: Q01DX005 (ip), vehicle: saline 97 % of control | dose: 200.0 mg/kg/injection, schedule: Q01DX005 (ip), vehicle: saline 100 % of control

N#CC(NCCNC(C#N)c1ccccc1)c1ccccc1 (stereo not given)
inactive: [4] 96 % of control | [5] 90 % of control | [6] 88 % of control

O=C(CCc1ccccc1)OC/C=C/COC(=O)c1ccccc1
inactive: [7] 102 % of control | [8] 111 % of control | [9] 106 % of control

CCCCCCC(=O)/C=C/c1cccc(OC)c1OC
inactive: [10] 99 % of control | [11] 107 % of control | [12] 105 % of control

CC(=O)N=C1CSc2ccccc2N1C
inactive: dose: 50.0 mg/kg/injection, schedule: Q01DX005 (ip), vehicle: saline + alcohol 99 % of control | dose: 100.0 mg/kg/injection, schedule: Q01DX005 (ip), vehicle: saline + alcohol 103 % of control | dose: 200.0 mg/kg/injection, schedule: Q01DX005 (ip), vehicle: saline + alcohol 109 % of control

COc1ccc(C2=[N+]([O-])C(C)(C)C(c3ccccc3)C2)cc1 (stereo not given)
inactive: [7] 97 % of control | [8] 101 % of control | [9] 100 % of control

COc1ccc(C(=O)/C=N/O)cc1
inactive: [13] 95 % of control | [14] 95 % of control | [15] 86 % of control

COC(=O)CS(=O)(=O)CCS(=O)(=O)CC(=O)OC
inactive: dose: 12.5 mg/kg/injection, schedule: Q01DX009 (ip), vehicle: saline 99 % of control and 100 % of control | dose: 25.0 mg/kg/injection, schedule: Q01DX009 (ip), vehicle: saline 94 % of control and 98 % of control | [1] 99 % of control and 124 % of control and 98 % of control | [2] 103 % of control and 104 % of control and 113 % of control | [3] 114 % of control

CCN(CC)C(=S)Oc1cc(C)nc(SCC(=O)c2ccc(Cl)cc2)n1
inactive: [7] 108 % of control | [8] 100 % of control | [9] 103 % of control

CNc1ncc2c(n1)N(C)C(=O)/C(=C\C(=O)OC)N2
inactive: dose: 40.0 mg/kg/injection, schedule: Q01DX009 (ip), vehicle: saline with Tween-80 101 % of control | dose: 80.0 mg/kg/injection, schedule: Q01DX009 (ip), vehicle: saline with Tween-80 93 % of control | dose: 160.0 mg/kg/injection, schedule: Q01DX009 (ip), vehicle: saline with Tween-80 99 % of control

O=C(NNc1ccc([N+](=O)[O-])cc1[N+](=O)[O-])Nc1cccc(Cl)c1
inactive: [10] 91 % of control | [11] 99 % of control | [12] 102 % of control

CC[C@H](C)[C@H](NC(=O)OC(C)(C)C)C(=O)ON1C(=O)CCC1=O
inactive: [16] 109 % of control | [17] 113 % of control | [18] 109 % of control

C=Cc1ccccc1-c1ccccc1C(=O)OC
inactive: [13] 100 % of control | [14] 101 % of control | [15] 99 % of control

CC(CN=C(CC(=O)c1ccccc1)c1ccccc1)N=C(CC(=O)c1ccccc1)c1ccccc1 (stereo not given)
inactive: [10] 104 % of control | [11] 103 % of control | [12] 97 % of control

O=C1Nc2ccccc2S/C1=C\c1ccccc1C(F)(F)F
inactive: [1] 108 % of control | [2] 106 % of control

Cc1ccc(Nc2ccc(Nc3ccc(C)cc3)c3c2C(=O)c2cc(Cl)c(Cl)cc2C3=O)cc1
inactive: [7] 101 % of control and 93 % of control and 95 % of control | [8] 111 % of control and 89 % of control and 96 % of control | [9] 103 % of control and 105 % of control | dose: 400.0 mg/kg/injection, schedule: Q01DX009 (ip), vehicle: Klucel (hydroxypropylcellulose) (HPC) 98 % of control

O=C1CC2CC(=O)C(S(=O)c3ccccc3)C2C1 (stereo not given)
inactive: [4] 96 % of control | [5] 99 % of control

O=C(NC(=S)Nc1ccccc1)c1ccccc1
inactive: dose: 9.4 mg/kg/injection, schedule: Q01DX009 (ip), vehicle: Klucel (hydroxypropylcellulose) (HPC) 106 % of control | dose: 18.75 mg/kg/injection, schedule: Q01DX009 (ip), vehicle: Klucel (hydroxypropylcellulose) (HPC) 101 % of control | dose: 37.5 mg/kg/injection, schedule: Q01DX009 (ip), vehicle: Klucel (hydroxypropylcellulose) (HPC) 94 % of control | dose: 75.0 mg/kg/injection, schedule: Q01DX009 (ip), vehicle: Klucel (hydroxypropylcellulose) (HPC) 96 % of control

S=C(NCCCCCCNC(=S)Nc1ccc2ccccc2n1)Nc1ccc2ccccc2n1
inactive: [7] 100 % of control | [8] 97 % of control | [9] 91 % of control

CC(C)CCCC(C)C1CCC2C3CCC4N(CCCl)CCCC4(C)C3CCC12C (stereo not given)
inactive: dose: 25.0 mg/kg/injection, schedule: Q01DX001 (ip), vehicle: saline 100 % of control | dose: 50.0 mg/kg/injection, schedule: Q01DX001 (ip), vehicle: saline 99 % of control | dose: 100.0 mg/kg/injection, schedule: Q01DX001 (ip), vehicle: saline 94 % of control

COc1cc2cc3c(nc2cc1OC)OC(=O)/C3=C\c1ccccc1
inactive: [16] 99 % of control | [17] 98 % of control | [18] 103 % of control

CCOC(=O)C1=C(Nc2ccc(Br)cc2)C(=O)N(CC)C1
inactive: [4] 109 % of control | [5] 100 % of control | [6] 106 % of control

C=C1CC/C=C(\C)CCC2C1CC2(C)C (stereo not given)
inactive: dose: 12.5 mg/kg/injection, schedule: Q01DX009 (ip), vehicle: Klucel (hydroxypropylcellulose) (HPC) 100 % of control | dose: 25.0 mg/kg/injection, schedule: Q01DX009 (ip), vehicle: Klucel (hydroxypropylcellulose) (HPC) 100 % of control | [7] 102 % of control | [8] 105 % of control | [9] 113 % of control

O=C(Nc1ccc(Cl)cc1)Nc1nnc2nc(C3(c4nc5nnc(NC(=O)Nc6ccc(Cl)cc6)n5[nH]c4=O)CCCC3=O)c(=O)[nH]n12
inactive: dose: 30.0 mg/kg/injection, schedule: Q01DX005 (ip), vehicle: saline with Tween-80 95 % of control | [4] 91 % of control and 95 % of control | [6] 86 % of control

C(=C\c1ccc2c(c1)OCO2)/c1ccnnc1
inactive: [1] 100 % of control | [2] 97 % of control | [3] 100 % of control

C=CCNc1ccc(OC)cc1
inactive: [14] 100 % of control | [15] 100 % of control | dose: 200.0 mg/kg/injection, schedule: Q04DX003 (ip), vehicle: saline with Tween-80 100 % of control
